# Laboratory results taken from article PMC10120574 (Biochemistry, 2022).
# Legend:
# 437 = assay: UV ketonization assay, decay of enol at […] nm; assay type: biochemical, Calothrix sp. PCC 6303; details: read-out: 437 / Km; 10 mM Na2HPO4, pH 8.3, 22 °C; 5-75 μM substrate
# Nterm1 = Nterm1 (UniProt position 2, ----MPLLKFD); assay: NMR; details: not stated (presumably free enzyme); cited from earlier work
Km 437,Molecule,pKa (Nterm1)
34 ± 12 µM,"O=C(O)C=CC=C(O)C(=O)O [2-HM, 2-Hydroxymuconate]",
,Malonate semialdehyde decarboxylase (Pp MSAD) (Pseudomonas pavonaceae 170),~9.2
